One test has as its system MDA-MB468. The experiment in a line: Labelling (staining) of cells with labelled molecules. The class given is cell-based. From the text: (§1) As shown in the examples, a compound for use according to the invention, wherein the compound comprises a label moiety, is contacted with a cell. As labelling is preferably done with viable or potentially viable cells, the cells are typically present in an aqueous solution, which is preferably buffered and/or contains nutrients, e.g. the cells are suspended in PBS. The labeled compound for use according to the invention may be added to the cells, e.g. in form of a solution, e.g. as aqueous solution by methods known in the art, as pipetting.

For the next test, the system named is U937. The test is described as above. The class given is cell-based.
From the text: as §1

In a further test the test system is Epithelial cells. Described as above. The class given is cell-based.
From the text: as §1

Test [1] has as its system WBCs. The test is described as above. The class given is cell-based.
From the text: as §1

The subject of the next test is Hela. The description is as above. The class given is cell-based.
From the text: as §1

The subject of a further test is CHO. The description is as above. The class given is cell-based.
From the text: as §1

The subject of the next test is NIH 3T3. The description is as above. The class given is cell-based.
From the text: as §1

Another test has as its system COS 7. The description is as above. The class given is cell-based.
From the text: as §1

The next test deals with Jurkats. The test is described as above. The class given is cell-based.
From the text: as §1

The subject of test [2] is WBCs. As to the kind of experiment: Recovery rate of cells after immobilization on streptavidin (SA) plate. The class given is cell-based. The conditions noted are these: WBCs, 100 nmol/10e6 cells. The method, then:
X=hydrophobic moiety, […]=fluorescein In the following experiment, the recovery rate of cells was determined.

Test [3] relates to WBC. The conditions noted are these: Example 5 B; centrifugation 10 min, 300×g.
The subject of test [4] is WBC. The experiment in a line: WBC recovery rate after centrifugation (stabilization of cells). The class given is cell-based, human. The conditions noted are these: Centrifugation 10 min, 300×g. As to the method:
(§2) Centrifugation characteristics: 10 min, 300×g.
as §2
The respective left, middle and right columns per assay represent different Experimenters 1, 2 and 3. […] Centrifugation characteristics: 10 min, 300×g. Molecule: Cholesteryl-TEG-Cholesteryl-TEG-(SpacerC18)7-Fluos-Biotin-TEG.
Following molecules were tested: 1234: 5′-(Cholesteryl-TEG)2-Spacer C18-dT-Biotin-TEG-3′; 1248: 3′-(Cholesteryl-TEG)2-PEG2000-Fluos-Biotin-TEG-5′ INVERS; 1254: 3′-(Cholesteryl-TEG)2-SpacerC18-Fluos-Biotin-TEG-5′ INVERS; 1255: 3′-(Myristic acid)2-PEG2000-dT-Biotin-TEG-5′ INVERS. […] Centrifugation characteristics: 20 min, 300×g. Respective left column: 10 min incubation with molecule. Respective middle column: 1 h min incubation with molecule. Respective right column: 2 h incubation with molecule.
Following molecules were tested: 1255: 3′-(Myristic acid)2-PEG2000-dT-Biotin-TEG-5′ INVERS; 1234: 5′-(Cholesteryl-TEG)2-Spacer C18-dT-Biotin-TEG-3′; 1248: 3′-(Cholesteryl-TEG)2-PEG2000-Fluos-Biotin-TEG-5′ INVERS; 1254: 3′-(Cholesteryl-TEG)2-SpacerC18-Fluos-Biotin-TEG-5′ INVERS. […] Centrifugation characteristics: 20 min, 500×g. Respective left column: 10 min incubation with molecule. Respective middle column: 1 h min incubation with molecule. Respective right column: 3 h incubation with molecule.
Following molecules were tested: 1255: 3′-(Myristic acid)2-PEG2000-dT-Biotin-TEG-5′ INVERS; 1234: 5′-(Cholesteryl-TEG)2-Spacer C18-dT-Biotin-TEG-3′; 1248: 3′-(Cholesteryl-TEG)2-PEG2000-Fluos-Biotin-TEG-5′ INVERS; 1254: 3′-(Cholesteryl-TEG)2-SpacerC18-Fluos-Biotin-TEG-5′ INVERS. […] Centrifugation characteristics: 20 min, 1000×g. Respective left column: 10 min incubation with molecule. Respective middle column: 1 h min incubation with molecule. Respective right column: 2 h incubation with molecule.
Stabilization is typically determined on a population of cells, e.g. 2, 10, 100 or more cells, and the respective mean viability of the cell populations are compared. […] Viability may be determined by determining cell morphology, cell viability and/or cell recovery. Methods for determining cell morphology, cell viability and cell recovery are known in the art. […] For determining cell morphology, visual inspection by microscopy may be performed. For determining cell viability, a cell viability test using WST-1 proliferation kit (RAS) may be performed.

“And” between values parts separate entries of the source, which are not always exact repeats. Equal entries are not always repeated.

As to “5′-alphaTocopherolTEG-PEG2000-Fluos-3′ [BMO 29.891131]”, the “staining of cells by labelled molecule” value in the test on MDA-MB468 was “✓”; in the test on U937 it was “✓”; in the test with Epithelial cells, “✓”; in the test with WBCs [1], “✓ not all”.
As for `CCCCCCCCCCCCC/C=C/[C@@H](O)[C@H](COP(=O)([O-])OCC[N+](C)(C)C)NC(=O)CCCCc1ccc2n1[B-](F)(F)[N+]1=C(C)C=C(C)C1=C2` [Sphingomyelin, N-(4,4-difluoro-5,7-dimethyl-4-bora-3a,4a-diaza-s-indacene-3-pentanoyl)sphingosyl phosphocholine], the “staining of cells by labelled molecule” value in the test on Hela is recorded as “✓”; with Epithelial cells, “✓”; with CHO it was “x very weak”; with WBCs [1], “(x)- very bad”.
As to `CCCCCCCCCCCCCCCC(=O)OC[C@H](COP(=O)(O)OCCNC(=O)CCc1ccc2n1[B-](F)(F)[N+]1=C(C)C=C(C)C1=C2)OC(=O)CCCCCCCCCCCCCCC.CCN(CC)CC` [Phosphatidylethanolamine, N-(4,4-difluoro-5,7-dimethyl-4-bora-3a,4a-diaza-s-indacene-3-propionyl)-1,2-dihexadecanoyl-sn-glycero-3-phosphoethanolamine, triethylammonium salt], the “staining of cells by labelled molecule” value with Hela is listed as “x/✓ very weak”.
In the case of `CCCCC/C=C\C/C=C\CCCCCCCCN1C(=CC=CC2=[N+](CCCCCCCC/C=C\C/C=C\CCCCC)c3ccccc3C2(C)C)C(C)(C)c2ccccc21.[O-][Cl+3]([O-])([O-])[O-]` [Linol, 1,1′-dilinoleyl-3,3,3′,3′-tetramethylindocarbocyanine perchlorate], the “staining of cells by labelled molecule” value with Hela, with MDA-MB468, in the test with NIH 3T3, in the test on U937, in the test with Epithelial cells and with COS 7 was “✓” throughout. Also, the results for the “staining of cells by labelled molecule” value in the test on Jurkats, with CHO and in the test on WBCs [1] were “✓”, “✓” and 20-50 ms) ✓, respectively.
In the case of Biotin-PEG-Lys-(C18)2, the “Recovery Rate” value with WBCs [2] (listed as Biotin-PEG-Lysin-(C18)2) is 83.9% and 75.0% and 66.0%; in the test with WBCs [2] (may be to due 1.5-2 h exposure of plate), 33.0%. In the test with WBC [3], the “time within which cell immobilization is enabled” value was not above 3.5 h. In addition, in the test with WBC [4], the “WBC recovery rate after centrifugation: dependence on molecule concentration” value is “The higher the molecule concentration, the higher the cell recovery rate after centrifugation”.
For the compound `CCCCCCCCCCCCCCCCCCCCCC[N+]1=C(/C=C/C=C2/N(CCCCCCCCCCCCCC)c3ccccc3C2(C)C)C(C)(C)c2ccccc21.[I-]` [PKH26], the “staining of cells by labelled molecule” value with Hela is on record as “✓*”; in the test with MDA-MB468 it was “✓”; with NIH 3T3 it was “✓”; in the test with U937, “✓”; in the test on Epithelial cells, “✓ not all”; in the test with COS 7, “✓”. The “staining of cells by labelled molecule” value is reported as “✓” in the test with Jurkats, “✓” with CHO and “not stained) ✓” in the test with WBCs [1].
For the compound “5′-CholesterylTEG-CholesterylTEG-PEG2000-Fluos-3′ [BMO 29.891133]”, the “staining of cells by labelled molecule” value in the test with Hela, in the test with MDA-MB468, in the test on NIH 3T3, with U937, in the test on Epithelial cells and in the test on COS 7 was “✓” throughout. In addition, the “staining of cells by labelled molecule” value with Jurkats is “✓”; in the test on CHO, “✓”; in the test on WBCs [1], 50-200 ms) ✓.
For `CCCCCCCCCCCCCCCCCCN1C(=CC=CC2=[N+](CCCCCCCCCCCCCCCCCC)c3ccccc3C2(C)C)C(C)(C)c2ccccc21.[O-][Cl+3]([O-])([O-])[O-]` [1,1′-Dioctadecyl-3,3,3′,3′-tetramethylindocarbocyanin perchlorate], the “staining of cells by labelled molecule” value was “✓” in the test on Hela; “✓” in the test on MDA-MB468; “✓*” with NIH 3T3; “✓” in the test with U937; “✓” in the test on Epithelial cells; “✓” in the test with COS 7. Also, the entries for the “staining of cells by labelled molecule” value in the test on Jurkats, in the test on CHO and with WBCs [1] were “✓”, “✓” and “✓ not all”, respectively.
As to “5′-Cholesteryl-TEG-PEG2000-Fluos-3′ [BMO 29.891132]”, the “staining of cells by labelled molecule” value was “✓” in the test with MDA-MB468, “✓” in the test on U937, “✓” in the test with Epithelial cells and “✓ not all” in the test on WBCs [1].

For the origin of these results see patent US11021472B2, “Use of compounds comprising two or more hydrophobic domains and a hydrophilic domain comprising PEG moieties for stabilization of a cell” (Roche Diagnostics Operations, Inc., priority 2013, dated 2021).
